The results in this text go back to US10292395B2, “3H-pyrrolopyridine compound, N-oxide thereof or salt thereof, agricultural and horticultural insecticide comprising the compound and method for using the same” (Nihon Nohyaku Co., Ltd., priority 2015, dated 2019).

For one assay, the system named is Plutella xylostella. Kind of assay: Insecticidal test on Plutella xylostella (dip of Chinese cabbage seedlings with laid eggs). The format is in vivo. The note with it: 144 h, seedlings with laid eggs dipped about 30 seconds, 25° C., 6 days after dip treatment, read-out: insecticidal effect (corrected mortality rate), activity level. The source says:
Insecticidal Test on Plutella xylostella
Adults of Plutella xylostella were released onto Chinese cabbage seedlings and allowed to lay eggs thereon. At 2 days after the release of the adults, the Chinese cabbage seedlings with laid eggs were dipped for about 30 seconds in agrochemical dispersions diluted to 500 ppm, each of which contained a different condensed heterocyclic compound represented by the general formula (1) of the present invention as an active ingredient. After air-dried, the seedlings were kept in a thermostatic chamber at 25° C. At 6 days after the dip treatment, the number of hatched larvae per plot was counted, the mortality rate was calculated according to the formula shown below, and the insecticidal effect was evaluated according to the criteria of Test Example 1. This test was conducted in triplicate using 10 adults of Plutella xylostella per plot. Corrected mortality rate (%)=100×(Number of hatched larvae in a non-treatment plot−Number of hatched larvae in a treatment plot)/Number of hatched larvae in a non-treatment plot [Math. 3]

For another assay, the system named is Laodelphax striatella. Kind of assay: Insecticidal test on Laodelphax striatella (rice seedling dip). Type of assay: in vivo. The note with it: Laodelphax striatellus, 192 h, rice seedlings dipped 30 seconds, 3rd-instar larvae, 8 days after inoculation, read-out: insecticidal effect (corrected mortality rate), activity level. The source says:
Insecticidal Test on Laodelphax striatella
The condensed heterocyclic compounds represented by the general formula (1) of the present invention or salts thereof were separately dispersed in water and diluted to 500 ppm, and rice plant seedlings (variety: Nihonbare) were dipped in the agrochemical dispersions for 30 seconds. After air-dried, each seedling was put into a separate glass test tube and inoculated with ten 3rd-instar larvae of Laodelphax striatella, and then the glass test tubes were capped with cotton plugs. At 8 days after the inoculation, the numbers of surviving larvae and dead larvae were counted, the corrected mortality rate was calculated according to the formula shown below, and the insecticidal effect was evaluated according to the criteria of Test Example 1. Corrected mortality rate (%)=100×(Survival rate in a non-treatment plot−Survival rate in a treatment plot)/Survival rate in a non-treatment plot [Math. 2]

Take `CCS(=O)(=O)c1cc(-c2cccc(C(F)(F)F)c2)cnc1C1=Nc2cc(C(F)(F)F)cnc2C1(F)F` [Compound 1-20, 2-(3-Ethylsulfonyl-5-(3-trifluoromethylphenyl)pyridin-2-yl)-3,3-difluoro-6-trifluoromethyl-3H-pyrrolo[3,2-b]pyridine]: the mortality at 500 ppm with Plutella xylostella and in the assay on Laodelphax striatella was 100% in each case.
For the compound `CCS(=O)(=O)c1cc(-c2ccc(F)cc2)cnc1C1=Nc2cc(C(F)(F)F)cnc2C1(F)F` [Compound 1-19, 2-(3-Ethylsulfonyl-5-(4-fluorophenyl)pyridin-2-yl)-3,3-difluoro-6-trifluoromethyl-3H-pyrrolo[3,2-b]pyridine], the mortality at 500 ppm with Plutella xylostella and with Laodelphax striatella was 100% throughout.
Turning to `CCS(=O)(=O)c1cc(C(F)(F)F)ccc1C1=Nc2cc(C(F)(F)F)cnc2C1(F)F` [Compound 1-1], the mortality at 500 ppm with Plutella xylostella and in the assay with Laodelphax striatella was 100% each time.
`CCS(=O)(=O)c1cc(C(F)(F)F)cnc1C1=Nc2cc(C(F)(F)F)cnc2C1(F)F` [Compound 1-10, 2-(3-Ethylsulfonyl-5-trifluoromethylpyridin-2-yl)-3,3-difluoro-6-trifluoromethyl-3H-pyrrolo[3,2-b]pyridine]: the mortality at 500 ppm in the assay on Plutella xylostella and with Laodelphax striatella was 100% in each case.
Take `CC[S+]([O-])c1cc(C(F)(F)F)cnc1C1=Nc2cc(C(F)(F)F)cnc2C1(F)F` (stereo not shown) [Compound 1-9, 2-(3-Ethylsulfinyl-5-trifluoromethylpyridin-2-yl)-3,3-difluoro-6-trifluoromethyl-3H-pyrrolo[3,2-b]pyridine]: the mortality at 500 ppm in the assay on Plutella xylostella and in the assay on Laodelphax striatella was 100% throughout.
